# Assay results reported in article PMC13308190, “Endothelial progenitor cell susceptibility to DNA damaging and DDR-modulating compounds determines endothelial differentiation accuracy” (Stem Cell Research & Therapy, 2026).
# pIC50: −log10 of the molar value.
# Key:
# Format in all cases: cell-based, mouse
# [1] = test system: EC d4 (endothelial progenitor cells); test: AlamarBlue cell viability; settings: 48 h treatment
# Description: (§1) Drug-induced cytotoxicity was monitored by analyzing cell viability using the AlamarBlue assay, which measures the reduction of the non-fluorescent dye resazurin (Sigma [Steinheim, Germany]) to fluorescent resorufin by living (i.e. metabolically active) cells. Fluorescence was measured in quadruplicates (excitation: 535 nm, emission: 590 nm (Tecan infinite 200, Tecan, Männedorf, Switzerland)). Relative cell viability of the untreated control was set to 100%.
# mESC = test: AlamarBlue cell viability
# Description: as §1
# [2] = test system: EC d4 (endothelial progenitor cells); test: Western blot protein expression (densitometry); settings: EC d4 48 h; for H3ac protein / H4ac protein / aTubac (acetylated α-Tubulin) protein: Fig 1D; for CHK1 protein / RAD51 protein / gH2AX protein / p-CHK2 protein / p-KAP1 protein / p-RPA32 protein / p-p53 protein: Fig 5D; for AMPKa protein / GSK3b protein / p-p70SK protein: Fig 6E
# Outline: (§2)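 Whole-cell RIPA extracts (probe sonication) quantified by DC assay; 20 µg protein resolved by SDS-PAGE, blotted to nitrocellulose. Blocked 1 h RT in 5% milk or BSA/TBST; primary antibodies 1:500–5000 overnight 4 °C, peroxidase secondary 1:2000 2 h RT. Chemiluminescent bands imaged, levels by densitometry.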
# [3] = test system: EC d6 (endothelial-like cells); test: Western blot protein expression (densitometry); settings: EC d6 24 h; for H3ac protein / H4ac protein / aTubac (acetylated α-Tubulin) protein: Fig 1D; for CHK1 protein / RAD51 protein / gH2AX protein / p-CHK2 protein / p-KAP1 protein / p-RPA32 protein / p-p53 protein: Fig 5D; for AMPKa protein / GSK3b protein / p-p70SK protein: Fig 6E
# Outline: as §2
# EC d4 [4] = test: EdU incorporation (S-phase activity); settings: EC d4 48 h
# Description: S-phase activity of cells was monitored by measuring EdU incorporation using the EdU-Click 488 assay according to the manufacturer’s protocol. Briefly, cells were pulse-treated with 5-ethynyl-2′-deoxyuridine (EdU) for 3 h. Alexa Fluor 488-conjugated reaction cocktail was added (30 min, RT) and nuclei were counterstained with DAPI. The percentage of EdU-positive area/DAPI-positive area was calculated by fluorescence microscopy (Olympus BX43, 20x objective).
# EC d6 [5] = test: Mitochondrial membrane potential (TMRM-MitoTracker Green); settings: EC d6 treated 24 h
# Description: Mitochondrial membrane potential (ΔΨm) was analyzed by live-cell imaging using TMRM-MitoTracker Green co-staining. Cells were seeded and differentiated on Poly-D-Lysine-fibronectine-coated live-imaging dishes. For staining, cells were incubated with 200nM MitoTracker Green (Invitrogen) and 50 nM TMRM (Invitrogen) in DMEM (30 min, 37 °C, 5% CO2). After washing with PBS, live-cell microscopy was performed using a spinning disc confocal microscope (PerkinElmer) equipped with a 60x oil-immersion objective (N.A = 1.49) and a Hamamatsu C9100 camera (1000 × 1000 pixel) (excitation (MitoTracker Green): 488 nm, excitation (TMRM): 561 nm). The cells were kept at 37 °C in OptiMEM supplemented with 10 mM HEPES during imaging. The images were obtained at emission wavelength of 527 nm (W55) and 615 nm (W70) for 488 nm and 561 nm excitation, respectively.
# EC d6 [6] = test: ZO1 tight junction immunofluorescence; settings: analysed 2 days later
# EC d4 [7] = test: VE-cadherin cell-cell junction immunostaining; settings: EC d4 treated 48 h
# EC d4 [8] = test: Dil-acLDL uptake; settings: EC d4 treated 48 h
# Description: To monitor prototypical functions of endothelial cells, the uptake of fluorescent 1,1-dioctadecyl-3,3,3,3-tetra-methylindocarbocyanine-labeled acetylated LDL (Dil-acLDL) was examined. Briefly, cells were incubated with Dil-acLDL (10 µg/ml, 4 h, 37 °C). After fixation (3.7% cold formaldehyde/PBS (15 min, RT) nuclei were counterstained with DAPI. The uptake of DiI-acLDL was analyzed by fluorescence microscopy (Olympus BX43, 20x objective). Additionally, the response of differentiated EC to inflammatory cytokines was measured. After treatment with a pro-inflammatory cytokine mixture (TNFα/IL-1β, 10 ng/mL) for 1 h, mRNA expression of activated EC markers E-selectin, Icam-1, Vcam-1, Ccl2, eNos, iNos was analyzed (RT-qPCR).
# [9] = concentration 1 (Dox 1/B02 1/EST 1)
# [10] = concentration 2 (Dox 2/B02 2/EST 2)
structure (smiles),measurement,setting,value
O=c1c2ccccc2nc(/C=C/c2cccnc2)n1Cc1ccccc1 [B02],susceptibility (cell viability) of EC d4 as compared to both mESC and EC d6,[1],not observed
same,pIC50,mESC; 24–72 h treatment,~4.70
same,H3ac protein,[2],0.0 Fold of mESC
same,H4ac protein,[2],0.0 Fold of mESC
same,aTubac (acetylated α-Tubulin) protein,[2],0.6 Fold of mESC
same,CHK1 protein,[2]; [9],0.4 Fold of mESC
same,RAD51 protein,[2]; [9],0.7 Fold of mESC
same,gH2AX protein,[2]; [9],1.8 Fold of mESC
same,p-CHK2 protein,[2]; [9],0.2 Fold of mESC
same,p-KAP1 protein,[2]; [9],0.0 Fold of mESC
same,p-RPA32 protein,[2]; [9],0.3 Fold of mESC
same,p-p53 protein,[2]; [9],0.6 Fold of mESC
same,CHK1 protein,[2]; [10],0.2 Fold of mESC
same,RAD51 protein,[2]; [10],0.3 Fold of mESC
same,gH2AX protein,[2]; [10],0.0 Fold of mESC
same,p-CHK2 protein,[2]; [10],< 0.1 Fold of mESC
same,p-KAP1 protein,[2]; [10],0.0 Fold of mESC
same,p-RPA32 protein,[2]; [10],0.4 Fold of mESC
same,p-p53 protein,[2]; [10],0.3 Fold of mESC
same,AMPKa protein,[2],0.1 Fold of mESC
same,GSK3b protein,[2],1.9 Fold of mESC
same,p-p70SK protein,[2],1.4 Fold of mESC
same,H3ac protein,[3],0.1 Fold of mESC
same,H4ac protein,[3],0.0 Fold of mESC
same,aTubac (acetylated α-Tubulin) protein,[3],0.3 Fold of mESC
same,CHK1 protein,[3]; [9],0.7 Fold of mESC
same,RAD51 protein,[3]; [9],0.7 Fold of mESC
same,gH2AX protein,[3]; [9],1.2 Fold of mESC
same,p-CHK2 protein,[3]; [9],0.1 Fold of mESC
same,p-KAP1 protein,[3]; [9],0.0 Fold of mESC
same,p-RPA32 protein,[3]; [9],0.1 Fold of mESC
same,p-p53 protein,[3]; [9],0.4 Fold of mESC
same,CHK1 protein,[3]; [10],0.1 Fold of mESC
same,RAD51 protein,[3]; [10],< 0.1 Fold of mESC
same,gH2AX protein,[3]; [10],0.1 Fold of mESC
same,p-CHK2 protein,[3]; [10],0.0 Fold of mESC
same,p-KAP1 protein,[3]; [10],0.0 Fold of mESC
same,p-RPA32 protein,[3]; [10],< 0.1 Fold of mESC
same,p-p53 protein,[3]; [10],0.2 Fold of mESC
same,AMPKa protein,[3],0.1 Fold of mESC
same,GSK3b protein,[3],1.8 Fold of mESC
same,p-p70SK protein,[3],1.1 Fold of mESC
same,S-phase activity (EdU-positive cells),EC d4 [4],decrease in S-phase activity
same,mitochondrial membrane potential,EC d6 [5],significantly reduced
same,ZO1 assembly in treated EC d6,EC d6 [6],clearly visible gaps
same,VE-cadherin cell-cell junctions in EC d6 differentiated from treated EC d4,EC d4 [7],did not trigger defects
same,LDL uptake in EC d6 progeny of treated EC d4,EC d4 [8],strongest functional defect
"COc1cccc2c1C(=O)c1c(O)c3c(c(O)c1C2=O)C[C@@](O)(C(=O)CO)C[C@@H]3O[C@H]1C[C@H](N)[C@H](O)[C@H](C)O1 [Dox, doxorubicin]",susceptibility (cell viability) of EC d4 as compared to both mESC and EC d6,[1],significant higher
same,pIC50,"mESC; Mus musculus, 24 h treatment",6.77
same,pIC50,"mESC; Mus musculus, 72 h treatment",8.05
same,H3ac protein,[2],0.0 Fold of mESC
same,H4ac protein,[2],0.0 Fold of mESC
same,aTubac (acetylated α-Tubulin) protein,[2],0.3 Fold of mESC
same,CHK1 protein,[2]; [9],2.1 Fold of mESC
same,RAD51 protein,[2]; [9],0.1 Fold of mESC
same,gH2AX protein,[2]; [9],142.6 Fold of mESC
same,p-CHK2 protein,[2]; [9],0.7 Fold of mESC
same,p-KAP1 protein,[2]; [9],0.0 Fold of mESC
same,p-RPA32 protein,[2]; [9],0.5 Fold of mESC
same,p-p53 protein,[2]; [9],2.0 Fold of mESC
same,CHK1 protein,[2]; [10],0.2 Fold of mESC
same,RAD51 protein,[2]; [10],< 0.1 Fold of mESC
same,gH2AX protein,[2]; [10],44.9 Fold of mESC
same,p-CHK2 protein,[2]; [10],0.2 Fold of mESC
same,p-KAP1 protein,[2]; [10],0.0 Fold of mESC
same,p-RPA32 protein,[2]; [10],0.1 Fold of mESC
same,p-p53 protein,[2]; [10],2.6 Fold of mESC
same,AMPKa protein,[2],0.7 Fold of mESC
same,GSK3b protein,[2],5.7 Fold of mESC
same,p-p70SK protein,[2],0.5 Fold of mESC
same,H3ac protein,[3],0.0 Fold of mESC
same,H4ac protein,[3],0.0 Fold of mESC
same,aTubac (acetylated α-Tubulin) protein,[3],0.6 Fold of mESC
same,CHK1 protein,[3]; [9],1.7 Fold of mESC
same,RAD51 protein,[3]; [9],1.7 Fold of mESC
same,gH2AX protein,[3]; [9],4.6 Fold of mESC
same,p-CHK2 protein,[3]; [9],0.8 Fold of mESC
same,p-KAP1 protein,[3]; [9],0.0 Fold of mESC
same,p-RPA32 protein,[3]; [9],0.2 Fold of mESC
same,p-p53 protein,[3]; [9],4.2 Fold of mESC
same,CHK1 protein,[3]; [10],1.0 Fold of mESC
same,RAD51 protein,[3]; [10],1.3 Fold of mESC
same,gH2AX protein,[3]; [10],31.8 Fold of mESC
same,p-CHK2 protein,[3]; [10],0.5 Fold of mESC
same,p-KAP1 protein,[3]; [10],0.0 Fold of mESC
same,p-RPA32 protein,[3]; [10],0.1 Fold of mESC
same,p-p53 protein,[3]; [10],3.1 Fold of mESC
same,AMPKa protein,[3],0.6 Fold of mESC
same,GSK3b protein,[3],4.3 Fold of mESC
same,p-p70SK protein,[3],2.8 Fold of mESC
same,S-phase activity (EdU-positive cells),EC d4 [4],decrease in S-phase activity
same,mitochondrial membrane potential,EC d6 [5],significantly reduced
same,ZO1 assembly in treated EC d6,EC d6 [6],clearly visible gaps
same,VE-cadherin cell-cell junctions in EC d6 differentiated from treated EC d4,EC d4 [7],disturbed
same,LDL uptake in EC d6 progeny of treated EC d4,EC d4 [8],noticably reduced LDL uptake
